Calls of active or inactive are those of the source. No rule for the calls is given here.
Key:
[1] = test system: S. cerevisiae vps1Δ apl2Δ growth inhibition, dose response; test: growth inhibition of vps1Δ apl2Δ yeast, dose response, post-Golgi transport modulator project, S. cerevisiae, background strain comparison (AID 788)
[2] = test system: S. cerevisiae wild-type background strain growth inhibition; test: as above; conditions: S. cerevisiae vps1Δ apl2Δ growth inhibition, dose response; measured here: wild-type background strain growth

SMILES | IC50 [1] | IC50 [2] [µM]
CC1CCCCN1CCNC(=O)Cn1nc(-c2ccccc2)ccc1=O (configuration not stated) | > 10 µM (inactive) | > 10
O=C(Nc1cccc(Cl)c1)N1CCN(C/C=C/c2ccccc2)CC1 | > 10 µM (inactive) | > 10
Cc1nnc(-c2cccc(Br)c2)c2cn(-c3ccccc3Cl)nc12 | 2.73 µM | 25.9
Cc1cc(C)nc(N/N=C/C(Cl)=C/c2ccccc2)n1 | > 10 µM (inactive) | > 10
O=C(Nc1cc(C(F)(F)F)ccc1-n1cncn1)c1ccc(-c2ccccc2)cc1 | > 10 µM (inactive) | > 10
Cc1ccc(S(=O)(=O)N(CC(=O)N2CCC(C(N)=O)CC2)c2cccc(C(F)(F)F)c2)cc1 | > 10 µM (inactive) | > 10
COc1ccc(Cl)cc1NC(=O)C(C)N1CCN(C/C=C/c2ccccc2)CC1 (configuration not stated) | 9.01 µM | 15
CCc1cc(=O)oc2cc(C)c(CN3CCCC(C)C3)c(O)c12 (configuration not stated) | > 10 µM (inactive) | > 10
COc1cccc(-c2cc(C(=O)N3CCN(C(c4ccccc4)c4ccccc4)CC3)no2)c1 | > 10 µM (inactive) | > 10
Cc1ccc(/C=N/n2cnc3sc(-c4ccccc4)cc3c2=O)o1 | > 10 µM (inactive) | > 10
Clc1ccc(-c2n[nH]c3c2CCC3)c(Cl)c1 | 1.04 µM (inactive) | 0.518
CCOC(=O)Cn1cc(C=O)c2ccccc21 | > 10 µM (inactive) | > 10
C/C(CCC12CC3CC(CC(C3)C1)C2)=N\NC(N)=S | 1.65 µM | 5.28
CCCC(=O)Nc1ccc(Cl)c(NC(=O)c2cccnc2Cl)c1 | > 10 µM (inactive) | > 10
O=C(O)c1ccc(N2CCCCC2)cc1 | > 10 µM (inactive) | > 10
c1coc(CNc2nc(N3CCCCC3)nc3ccccc23)c1 | > 10 µM (inactive) | > 10
CCn1c(SCC(=O)N2CCCc3ccccc32)nnc1-c1ccco1 | > 10 µM (inactive) | > 10
CCOc1cccc(C(=O)Nc2cccnc2)c1 | > 10 µM (inactive) | > 10
COc1ccc2nc(NCCCNC(=O)c3cc(OC)c(OC)c(OC)c3)c(C#N)cc2c1 | > 10 µM (inactive) | > 10
Fc1ccc(-c2noc(C3CCN(Cc4cccnc4)CC3)n2)cc1 | 6.05 µM | > 10
Clc1ccc2[nH]c3c(NCC4CCCO4)ncnc3c2c1 (configuration not stated) | > 10 µM (inactive) | > 10

SMILES | IC50 [1] | IC50 [2] [µM]
O=C(c1ccco1)N1CCN=C1SCc1cccnc1 | > 10 µM (inactive) | > 10
Cc1sc(NC(=O)c2ccco2)c(C(c2cccnc2)N2CCC(C)CC2)c1C (configuration not stated) | 9.99 µM (inactive) | 5.77
OC(Cn1ccnc1)c1ccc(Cl)cc1Cl (configuration not stated) | > 10 µM (inactive) | > 10
Cc1ccc(SC(=O)COc2ccc(C)c(C)c2)cc1 | > 10 µM (inactive) | > 10
CC(C)(C)n1nnnc1CN(Cc1cccnc1)Cc1ccccc1Cl | > 10 µM (inactive) | > 10
Nc1ccc(Oc2ccc3nc(-c4ccccc4)c(-c4ccccc4)nc3c2)cc1 | 1.2 µM (inactive) | 1.21
O=c1cccc2n1CC1CC2CN(S(=O)(=O)c2ccccc2)C1 (configuration not stated) | > 10 µM (inactive) | > 10
O=Cc1cc2ccccc2nc1SCc1ccc(Cl)cc1 | > 10 µM (inactive) | > 10
CCOC(=O)COc1ccccc1C1Nc2ccccc2C(=O)N1c1cccc(Cl)c1 (configuration not stated) | 19.3 µM | > 10
O=C(Cc1cccs1)Nc1nc2c(s1)CCCC2 | > 10 µM (inactive) | > 10
O=C(NC(C(=O)c1ccccc1)N1CCCCC1)c1ccccc1 (configuration not stated) | > 10 µM (inactive) | > 10
O=C(C1COc2ccccc2O1)N1CCN(Cc2ccc3c(c2)OCO3)CC1 (configuration not stated) | 10.4 µM | > 10
Cc1ccc(-n2cc3c(-c4cccc(Br)c4)nnc(C)c3n2)cc1 | 1.94 µM | 13.5
O=C(Cn1ncc2c3ccccc3n(Cc3ccccc3F)c2c1=O)N1CCC2(CC1)OCCO2 | > 10 µM (inactive) | > 10
CN1C(=O)/C(=C/c2cccn2-c2ccc3ccccc3c2)C(=O)NC1=S | 10.4 µM (inactive) | 6.58
CCOC(=O)N1CCN(c2ccc(S(=O)(=O)N(Cc3ccccc3)Cc3ccccc3)cn2)CC1 | > 10 µM (inactive) | > 10
COc1ccc(CN(C(=O)Cc2cccs2)C(C(=O)NC2CCCC2)c2ccncc2)cc1 (configuration not stated) | > 10 µM (inactive) | > 10
O=C(NCC(c1cccnc1)N1CCN(c2ccccc2)CC1)c1ccc2c(c1)OCO2 (configuration not stated) | > 10 µM (inactive) | > 10
CC1CN(CC(O)COc2ccc(C(C)C)cc2)CC(C)O1 (configuration not stated) | 15.2 µM | > 10
Cc1ccc(SC(C)C(=O)Nc2ncn[nH]2)cc1 (configuration not stated) | > 10 µM (inactive) | > 10
COc1cccc(OCCCCN2CC(C)OC(C)C2)c1 (configuration not stated) | 4.38 µM | > 10

SMILES | IC50 [1] | IC50 [2] [µM]
Cc1cc(N2C(=O)C3CCCN3C2c2sccc2C)no1 (configuration not stated) | > 10 µM (inactive) | > 10
COCCCNc1ccnc2c(Cl)cccc12 | > 10 µM (inactive) | > 10
Cc1ccc(CN2CCN(/N=C/c3cc(Br)ccc3O)CC2)cc1 | 4.32 µM | > 10
CCOC(=O)Cc1c(C)c2ccc(N(CC)CC)cc2oc1=O | > 10 µM (inactive) | > 10
C=CCc1ccccc1OCC(O)CN1CCN(Cc2ccc3c(c2)OCO3)CC1 (configuration not stated) | 4.4 µM | > 10
Clc1ccc(-c2cnc(Oc3ccccc3)nc2)cc1 | > 10 µM (inactive) | > 10
Cc1cccc(-n2c(N)c(C(=O)NCCN3CCOCC3)c3nc4ccccc4nc32)c1 | > 10 µM (inactive) | > 10
CSc1ncccc1C(=O)OCC(=O)N1CCOCC1 | > 10 µM (inactive) | > 10
CC(=O)Nc1ccccc1NS(=O)(=O)c1ccc(Cl)cc1 | > 10 µM (inactive) | > 10
Clc1ccc(Cn2nnc(-c3ccc(CN4CCOCC4)cc3)n2)cc1 | 1.33 µM | > 10
CCc1ccc(N(C(=O)c2csnn2)C(C(=O)NC(C)(C)C)c2ccncc2)cc1 (configuration not stated) | > 10 µM (inactive) | > 10
O=C(NCc1ccccc1)NS(=O)(=O)c1ccccc1Cl | > 10 µM (inactive) | > 10
CCOC(=O)NC(Nc1ccc(S(N)(=O)=O)cc1)(C(=O)OCC)C(F)(F)F (configuration not stated) | > 10 µM (inactive) | > 10
CCCCSCCCNC(=O)Nc1cccc(OC)c1 | > 10 µM (inactive) | > 10
CCc1n[nH]c2c1/C(=N\O)CC(C)(C)C2 | > 10 µM (inactive) | > 10
CC1CCCN(CCOCCOc2ccc(Cl)cc2Br)C1 (configuration not stated) | 2.5 µM | > 10
O=C1CC(N2CCN(c3ccc(Cl)c(Cl)c3)CC2)C(=O)N1 (configuration not stated) | > 10 µM (inactive) | > 10
O=C(NCc1ccco1)C(c1cccs1)N(C(=O)Cc1cccs1)c1ccccc1 (configuration not stated) | > 10 µM (inactive) | > 10
O=C(NC1CCCC1)C(c1ccsc1)N(C(=O)Cc1cccs1)c1ccc(F)cc1 (configuration not stated) | > 10 µM (inactive) | > 10

Reference: PubChem BioAssay AID788 (SRMLSC, 2007)
